From article PMC6220272, “Scaffold-Hopping from Synthetic Drugs by Holistic Molecular Representation” (Scientific Reports, 2018)

Columns and labels:
Assay type in all cases: cell-based
[1] = test system: ATP-binding cassette transporter A1 (ABCA1) mRNA in HepG2 cells; assay: Target gene quantification (quantitative real-time PCR), ABCA1; details: HepG2, 7 at 30 µM versus bexarotene at 1 µM, 8 h, qRT-PCR
Description: (§1) Moreover, 7 was characterized for its ability to modulate RXR target gene expression under more physiological conditions. Hepatoma cells (HepG2) were incubated with 7 (30 µM) or reference RXR agonist bexarotene (9, 1 µM) for eight hours and mRNA expression of RXR regulated genes ATP-binding cassette transporter A1 (ABCA1), angiopoietin like protein 4 (ANGPTL4) and apolipoprotein E (ApoE) was analysed by quantitative real-time PCR.
HepG2 cells were incubated with test compound 7 (30 µM) or bexarotene (1 µM) as positive control each dissolved in 0.1% DMSO or 0.1% DMSO alone as untreated control for 8 h, harvested, washed with cold phosphate buffered saline (PBS) and then directly used for RNA extraction with the Total RNA Mini Kit (R6834-02, Omega Bio-Tek, Inc., Norcross, GA, USA). 2 µg RNA were reverse-transcribed into cDNA using the High-Capacity cDNA Reverse Transcription Kit (4368814, Thermo Fischer Scientific, Inc.). RXR target gene expression was evaluated by quantitative real time PCR analysis with a StepOnePlus™ System (Life Technologies, Carlsbad, CA, USA) using PowerSYBRGreen (Life Technologies; 12.5 µl per well) and the primers reported in Supplementary Table 4[58]. […] The expression was quantified by the comparative ∆∆Ct method. […] Results are expressed as mean ± standard error of the mean (SEM) relative mRNA expression compared to DMSO (0.1%) control which was set as 1.

[2] = test system: Gal4-responsive reporter gene; assay: Control experiment without Gal4-RXR hybrid receptor (reporter gene construct and renilla luciferase only)
Description: as §1
(§2) The Gal4 hybrid reporter gene assays were conducted as reported previously[39]–[41]. pFA-CMV-based constructs comprising the ligand binding domain of the human nuclear receptor in question were used as expression plasmids for the chimera receptors. pFR-Luc (Stratagene) served as reporter plasmid and pRL-SV40 (Promega) for normalization of transfection efficiency and cell growth. The assays were conducted in 96-well format in HEK293T cells that were cultured as described previously[39]–[41]. Transient transfection was carried out using Lipofectamine LTX reagent (Invitrogen) according to the manufacturer’s protocol. After transfection and incubation with test compounds (12–14 h), cells were assayed for luciferase activity using Dual-Glo™ Luciferase Assay System (Promega) according to the manufacturer’s protocol. Luminescence was measured with an Infinite M200 luminometer (Tecan Deutschland GmbH). […]

[3] = target: T1, pregnane X receptor [PXR] (Homo sapiens, UniProt O75469); assay: Gal4 hybrid reporter gene assay PXR (selectivity profiling)
T1 construct: expressed in transfected cells; host or cells: HEK293T
T1 sequence (O75469 146-433 limits assumed): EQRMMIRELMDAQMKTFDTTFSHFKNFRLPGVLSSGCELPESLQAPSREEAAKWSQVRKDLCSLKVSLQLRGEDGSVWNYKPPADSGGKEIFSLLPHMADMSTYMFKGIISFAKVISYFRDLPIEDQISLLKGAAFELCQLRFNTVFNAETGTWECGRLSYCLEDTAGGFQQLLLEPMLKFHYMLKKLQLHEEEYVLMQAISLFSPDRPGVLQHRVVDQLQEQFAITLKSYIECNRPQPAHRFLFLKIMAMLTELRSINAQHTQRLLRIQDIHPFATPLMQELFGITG
Description: as §1, §2

PPARδ = target: T2, PPARδ (Homo sapiens, UniProt Q03181); assay: Gal4 hybrid reporter gene assay PPARδ (selectivity profiling)
T2 construct: expressed in transfected cells; host or cells: HEK293T
T2 sequence (Q03181 211-439 limits assumed): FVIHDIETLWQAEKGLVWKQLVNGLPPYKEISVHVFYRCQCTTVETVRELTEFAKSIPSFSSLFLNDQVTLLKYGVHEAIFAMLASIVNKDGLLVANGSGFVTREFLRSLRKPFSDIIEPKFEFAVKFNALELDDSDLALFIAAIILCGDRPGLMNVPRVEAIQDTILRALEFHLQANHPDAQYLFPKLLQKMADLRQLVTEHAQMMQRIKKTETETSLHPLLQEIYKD
Description: as §1, §2

LXRβ = target: T3, LXRβ (Homo sapiens, UniProt P55055); assay: Gal4 hybrid reporter gene assay LXRβ (selectivity profiling)
T3 construct: expressed in transfected cells; host or cells: HEK293T
T3 sequence (P55055 222-460 limits assumed): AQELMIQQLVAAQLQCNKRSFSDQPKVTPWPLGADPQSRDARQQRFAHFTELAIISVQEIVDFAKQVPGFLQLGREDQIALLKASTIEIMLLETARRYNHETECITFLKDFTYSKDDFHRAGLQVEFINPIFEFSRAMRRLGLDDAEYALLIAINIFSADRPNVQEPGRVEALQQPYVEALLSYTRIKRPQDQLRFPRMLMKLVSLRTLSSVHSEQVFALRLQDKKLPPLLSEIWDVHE
Description: as §1, §2

HepG2 cells = assay: Toxicity assay (WST-1, water-soluble tetrazolium assay); details: WST-1, HepG2 cells, 48 h
Description: WST-1 assay (Roche Diagnostics International AG, Rotkreuz, Schweiz) was performed according to manufacturer’s protocol in HepG2 cells. Cells were incubated with the test compounds (final concentrations: 1 µM, 10 µM, 30 µM, 50 µM and 100 µM) in DMEM/1% DMSO, and DMEM/1% DMSO as negative control. After 48 h, WST reagent (Roche Diagnostics International AG) was added to each well according to manufacturer’s instructions. After 45 min incubation, absorption (450 nm/reference: 620 nm) was determined with a Tecan Infinite M200 (Tecan Deutschland GmbH). Each experiment was set up in duplicates and repeated in four independent experiments. Results are expressed as mean ± SEM% of DMSO (0.1%) control.

LXRα = target: T4, LXRα (Homo sapiens, UniProt Q13133); assay: Gal4 hybrid reporter gene assay LXRα (selectivity profiling)
T4 construct: expressed in transfected cells; host or cells: HEK293T
T4 sequence (Q13133 209-447 limits assumed): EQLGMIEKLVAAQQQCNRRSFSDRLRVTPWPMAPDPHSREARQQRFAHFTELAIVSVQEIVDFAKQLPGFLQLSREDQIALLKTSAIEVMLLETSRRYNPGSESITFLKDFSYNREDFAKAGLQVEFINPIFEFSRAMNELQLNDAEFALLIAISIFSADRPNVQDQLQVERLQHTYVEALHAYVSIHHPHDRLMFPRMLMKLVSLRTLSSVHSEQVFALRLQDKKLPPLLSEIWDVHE
Description: as §1, §2

## CC(C)(C)c1cc(/C=N/NC(=O)c2ccc(N)cc2)cc(C(C)(C)C)c1 [Compound 7]
[1]
  induction of ABCA1 mRNA expression: comparable efficacy as RXR agonist bexarotene
[2]
  reporter transactivation without hybrid receptor: no reporter transactivation
[3]
  activity on PXR: no activity
PPARδ
  activity on PPARδ: no activity
LXRβ
  activity on LXRβ: no activity
HepG2 cells
  concentration up to which no cytotoxic effect was seen: > 100 µM
LXRα
  activity on LXRα: no activity
